Legend:
HaCaT = experiment: Antiproliferative activity against human HaCaT cells assessed as inhibition of cell proliferation measured after 48 hrs by SRB assay; assay type: cell-based
M21 = experiment: Antiproliferative activity against human M21 cells assessed as inhibition of cell proliferation measured after 48 hrs by SRB assay; assay type: functional, cell-based; details: M21, 48 h
HT-29 = experiment: Antiproliferative activity against human HT-29 cells assessed as inhibition of cell proliferation measured after 48 hrs by SRB assay; assay type: functional, cell-based; details: HT-29, 48 h
HT-1080 = experiment: Antiproliferative activity against human HT-1080 cells assessed as inhibition of cell proliferation measured after 48 hrs by SRB assay; assay type: functional, cell-based; details: HT-1080, 48 h

SMILES | IC50 (HT-29) [nM] | IC50 (HT-1080) [nM] | IC50 (HaCaT) [nM] | IC50 (M21) [nM]
COc1cc([C@@H]2c3cc4c(cc3[C@@H](N=[N+]=[N-])[C@H]3COC(=O)[C@H]23)OCO4)cc(OC)c1O | 600 | 600 | 500 | 600
COc1cc([C@@H]2c3cc4c(cc3[C@@H](n3cc(CNC(=O)[C@@H]5O[C@H](OC)[C@H](N)[C@@H](O)[C@@H]5O)nn3)[C@H]3COC(=O)[C@H]23)OCO4)cc(OC)c1O | > 100000 | > 100000 | > 100000 | > 100000
COc1cc([C@@H]2c3cc4c(cc3[C@@H](O)[C@H]3COC(=O)[C@H]23)OCO4)cc(OC)c1O [4'-DEMETHYLEPIPODOPHYLLOTOXIN] | 150 | 110 | 160 | 170
COc1ccc(/C=C\c2cc(OC)c(OC)c(OC)c2)cc1O [COMBRETASTATIN A4] | > 1000 | 2.6 | 3.4 | 1.9
COc1cc([C@@H]2c3cc4c(cc3[C@@H](O[C@@H]3O[C@@H]5CO[C@@H](C)O[C@H]5[C@H](O)[C@H]3O)[C@H]3COC(=O)[C@H]23)OCO4)cc(OC)c1O [ETOPOSIDE] | 9000 | 2000 | 6000 | 200

Second part, led by results:

IC50 (HT-29) [nM] | IC50 (HT-1080) [nM] | SMILES | IC50 (HaCaT) [nM] | IC50 (M21) [nM]
> 100000 | > 100000 | COc1cc([C@@H]2c3cc4c(cc3[C@@H](n3cc(CNC(=O)[C@@H]5O[C@H](OC)[C@H](O)[C@@H](O)[C@@H]5O)nn3)[C@H]3COC(=O)[C@H]23)OCO4)cc(OC)c1O | > 100000 | > 100000
> 1000 | > 1000 | COc1cc([C@@H]2c3cc4c(cc3[C@@H](n3cc(CNC(=O)[C@H]5O[C@H](OC)[C@H](NC(=O)OC(C)(C)C)[C@@H](O)[C@@H]5O)nn3)[C@H]3COC(=O)[C@H]23)OCO4)cc(OC)c1O | > 1000 | > 1000
> 100000 | > 100000 | COc1cc([C@@H]2c3cc4c(cc3[C@@H](n3cc(CNC(=O)[C@@H]5O[C@H](OC)[C@H](NC(C)=O)[C@@H](O)[C@@H]5O)nn3)[C@H]3COC(=O)[C@H]23)OCO4)cc(OC)c1O | > 100000 | > 100000

Source: ChEMBL document CHEMBL5032537, “Synthetic development of sugar amino acid oligomers towards novel podophyllotoxin analogues” (Bioorg Med Chem, 2021)
